Tests used:
[1] = test system: GLI1 mRNA in SUIT-2 cells; experiment: Real time PCR of GLI1 mRNA in SUIT-2; format: cell-based, human; conditions: 48 hrs
Experimental: (§1) Cells were lysed for RNA extraction after 48 or 72 hours of treatment. Total RNA from cultured cells or tumor tissue was isolated using the GeneElute miniprep kit (Sigma-Aldritch) following the manufacturer^'s instructions. cDNA was synthesized from the isolated mRNA using the Retroscript kit (Ambion), and real-time PCR was carried out using the SYBR Green PCR master mix (Stratagene) according to the manufacturer^'s instructions with an Mx3000P cycler (Stratagene). The relative concentrations of cDNA present in each sample were calculated by the MxPro software (Stratagene), normalized for GAPDH (mRNA from cells) or GUS (mRNA from tumors). For real time PCR primer sequences see Table 6. For the tumor tissue real time PCR, previously described human and mouse specific primers against GUSB, PTCH1 and GLI1were used.

[2] = test system: Gli1 protein in Sufu−/− MEF; experiment: Gli1 immunostaining of Sufu−/− MEF; format: cell-based, mouse; conditions: 20 µM, 48 hours
[3] = test system: Gli1 mRNA expression in Sufu−/− MEF; experiment: Real time PCR of Gli1 mRNA in Sufu−/− MEF; format: cell-based, mouse; conditions: 72 hours
Experimental: as §1

[4] = test system: Hh pathway in Shh-L2 cells; experiment: Hh reporter assay in Shh-L2 cells; format: cell-based, mouse; conditions: Mus musculus; pathway inhibition in Shh induced Shh-L2 cells, 48 hours treatment
Experimental: Shh-L2 cells were used as a Hh reporter cell line as described previously. Hh signaling was induced by Shh conditioned medium, 200 nM SAG (AH-Diagnostics) and ActOXS (a combination of 5 µM Hydroxycholesterol 20-alfa and 5 µM Hydroxycholesterol 22S (Sigma-Aldrich)). For Shh conditioned medium, Shh-PANC-1 cells were grown to confluence and switched to fresh medium. Shh conditioned medium was harvested after 48 hours, and was diluted to 50% in fresh DMEM before use. The clonal Shh-PANC-1 cell line was generated by stably transducing PANC-1 cells with virus containing medium from HEK293T cells that were transfected using a Virapower Lentiviral expression kit (Invitrogen). The vector was produced by removing GFP from a pLenti 6.2-vector, and inserting the mouse Shh cDNA sequence.
The calculations were performed with an online calculator using the formula: a exp (−bx) + c at the website; http://www.changbioscience.com/stat/ec50.html

[5] = test system: GLI1 mRNA in PC-3 cells; experiment: Real time PCR of GLI1 mRNA in PC-3; format: cell-based, human; conditions: 48 hrs
Experimental: as §1

[6] = test system: GLI1 mRNA in PANC-1 cells; experiment: Real time PCR of GLI1 mRNA in PANC-1; format: cell-based, human; conditions: 5 µM, 48 hrs
Experimental: as §1

[7] = test system: PANC-1, SUIT-2, PC-3 and FEMX cells; experiment: In vitro antiproliferative assay (MTS), tumor cell lines; format: cell-based, human; conditions: 10 µM, 4 day exposure; across PANC-1, SUIT-2, PC-3 and FEMX
Experimental: (§2) Cells were plated at a density of 3000 (THLE-2 and PC-3) and 1000 (PANC-1, SUIT-2 and FEMX) cells per well (on the basis of their growth rate) in 200 µl of medium in a 96-well plate. Medium was changed daily, and after four days, the assay was read using a MTS kit (Promega) according to the instructions of the manufacturer. Graphs display average of percent growth with standard deviation (n = 8).

[8] = test system: PANC-1 cells; experiment: In vitro antiproliferative assay (MTS), PANC-1; format: cell-based, human; conditions: 5 µM, 4 day
Experimental: as §2

SMILES	GLI1 mRNA levels, SUIT-2 [1]	total level of Gli1 in the cells [2]	inhibitory effect on Hh signaling downstream of Smo in Sufu−/− MEFs [3]	IC50 [4]	GLI1 mRNA levels, PC-3 [5]	GLI1 mRNA levels, PANC-1 [6]	growth reduction (MTS) [7]	growth (MTS), PANC-1 [8]
CC1=C2C[C@H]3[C@@H](CC=C4C[C@@H](O)CC[C@@]43C)[C@@H]2CC[C@]12O[C@@H]1C[C@H](C)CN[C@H]1[C@H]2C [cyclopamine, reference compound]	reduced GLI1 mRNA levels	no significant effect	little inhibitory effect	210 nM	–	–	–	–
CS(=O)(=O)c1ccc(C(=O)Nc2ccc(Cl)c(-c3ccccn3)c2)c(Cl)c1 [GDC-0449, reference compound]	reduced GLI1 mRNA levels	reduced Gli1 levels in the cells, but to a lesser extent than MS-0022	little inhibitory effect	30 nM	reduced GLI1 mRNA levels	without reducing GLI1 mRNA levels	≤ 30%	reduced growth

From paper PMC3115942 (PLoS ONE, 2011)
